Experimental data published in patent publication US20100234243A1, “PTU COMPOUNDS FOR PROMOTING THE IN VITRO CULTURE OF (HIGHLY PIGMENTED) MELANOCYTES” (L'OREAL, priority 2004, published 2010).

Experiments:
Format in all cases: cell-based, human
[1] = system: epidermis reconstructed from melanocytes of phototype VI (African); experiment: Depigmenting activity on reconstructed epidermis (luminance L* by colorimeter); settings: 100 μM, topical, 3 applications for 5 days; FIG. 3
Description: The epidermis reconstructed from melanocytes of phototype VI (African), prepared under the conditions of Example 2, is used to screen the depigmenting activity of active agents.
The test products—arbutin at 100 μM and vitamin C phosphate at 280 μM—are applied topically to said reconstructed epidermis: 3 applications (3 μM/sample) for 5 days from the 5th day of immersion.
Vitamin C phosphate at 280 μM is also applied systemically, i.e., in the culture medium, throughout the duration of the epidermal reconstruction.
The control is the measurement of luminance of the reconstructed epidermis in the absence of test product.
On epidermis reconstructed on BPER (Episkin®), since the dermal support is translucent, it cannot be evaluated directly on the samples. The latter are therefore de-epidermalized and then digested with a solution of proteinase K. The lysates obtained are filtered on DEAE cellulose, which retains the melanin. The luminance is then measured on the filter.
The luminance L*, or lightness, of the sample is measured using a colorimeter. The darker a sample is, the weaker its luminance.

[2] = system: melanocytes of phototype VI (African); experiment: Determination of the non-cytotoxic concentration of PTU (cell adherence, observed under a microscope); settings: for adherent cells (viability): primary culture without PTU 80%
Description: a) Preparation of a Primary Culture of […] Melanocytes: The melanocytes were obtained from a foreskin of a child according to the following protocol: the skin is cut into fragments of 6 mm and incubated at +4° C. overnight in the presence of 0.25% trypsin. The epidermis is then separated from the dermis in foetal calf serum. The pieces of dermis are scraped in order to recover the basal cells and the melanocytes. The epidermal fragments are then vortexed and the cells are then centrifuged at […] for 5 min. These cells (mixture of melanocytes and keratinocytes) are counted and seeded at a density of 8 to 15×10^6 cells per 75 cm^2 flask, in 18 to 20 ml of M2 medium (Promocell). The melanocytes are then purified according to the following protocol: the culture medium is changed 3 times a week and when the cells are confluent, the flasks are emptied and rinsed once with PBS-Ca^2+Mg^2+. 3 ml of trypsin-EDTA are then added per flask and the flasks are incubated at ambient temperature for 3-4 min: the melanocytes detach whereas the keratinocytes remain attached to the flask. An equivalent volume of M2 medium is added and the detached cells are counted and seeded at a density of 10^6 cells per 75 cm^2 flask, in 18 to 20 ml of M2 medium (Promocell). A primary culture of […] human melanocytes is thus obtained. The trypsinization is repeated when the melanocytes reach confluency (passage 1 et seq.). The melanocytes in the primary culture are 80% viable, i.e., 80% of the melanocytes adhere to the flask. b) Determination of the Non-Cytotoxic Concentration of PTU: Reversible Effect: Part of the primary culture of melanocytes is treated with PTU (Sigma) at the concentrations of 5 μM, 10 μM and 50 μM, at passage 2/3 or preferably from the first passage. The cytotoxicity of the effect of the PTU is evaluated by observing the cells under a microscope.

[3] = system: melanocytes of phototype VI (African); experiment: Pigmentation (luminance L*) and melanogenesis inhibition in melanocyte cultures
Description: The pigmentation of the melanocytes of phototype VI (African), treated with 10 μM PTU or not treated, is measured by the value L* (luminance) of the cultures given by the spectrocolorimeter (FIG. 1). […] Melanin synthesis is decreased during treatment and becomes normal again in the absence of treatment. The IC50 of PTU (i.e., the concentration of PTU for which 50% inhibition of melanogenesis is observed compared with the control on cultures of melanocytes of phototype VI (African), is evaluated from 50 μM to 100 μM.

[4] = system: melanocytes of phototype VI (African); experiment: Effect of PTU on proliferation of melanocytes (amount of cells obtained per passage)
[5] = system: melanocytes of phototype VI (African); experiment: Viability of melanocytes after freezing, thawing and re-culturing; settings: PTU 10 μM before freezing; non-treated 5%
Description: They are then centrifuged and the pellet is resuspended in foetal calf serum+10% DMSO at a concentration of 10^6 cells/ml. The cells are frozen in cryotubes at −80° C. After 24 h, the tubes are transferred into liquid nitrogen at −196° C. For the thawing, the tubes are placed in a water bath at 37° C. and, after rapid thawing, 5 ml of M2 medium are added. The cells are centrifuged at 190 g for 5 min, the pellet is resuspended in M2 medium, and the cells are seeded into a flask and re-cultured under the conditions described in a).

[6] = system: melanocytes of phototype VI (African) in reconstructed epidermis; experiment: Functionality of PTU-multiplied melanocytes in reconstructed epidermis (DOPA reaction, Fontana-Masson staining); settings: melanocytes multiplied beforehand with 5 μM or 10 μM PTU, treatment stopped
Description: The support is rinsed in the culture medium and then possibly coated with collagen type IV, fibronectin or laminin, for example. After contact at +4° C. overnight, the keratinocytes and the melanocytes of phototype VI (African) multiplied beforehand in the presence of 5 μM or 10 μM PTU, as described in Example 1, are then seeded onto said support. The culture can then be maintained immersed in a medium for keratinocytes in the presence of growth factor. After an incubation time of 3 to 5 days, the skin equivalent of phototype VI (African) undergoing formation is maintained at the air/liquid interface, for example by deposition onto a metal screen or removal of the culture medium present at the surface of an insert. The liquid then preferentially consists of the same nutritive medium as the previous one, but in which the growth factors have been reduced. The incubation then continues until a skin equivalent of phototype VI (African) is obtained. Thus, the incubation continues for a period of from 5 to 30 days, preferentially from 7 to 10 days. The reconstructed skin model of phototype VI (African) thus produced comprises two entities, the support, dermal equivalent, and the epidermal equivalent, which can be physically separated from one another. […] This enzyme is responsible for the oxidation of tyrosine to […] (DOPA) and then for the oxidation of DOPA to DOPA-quinone. […]

[7] = PTU 5 μM or 10 μM added at passage 2/3, non-treated cells multiply 2-fold
[8] = PTU 10 μM added at passage 4/5, non-treated control factor of 2

OC[C@H]1O[C@@H](Oc2ccc(O)cc2)[C@H](O)[C@@H](O)[C@@H]1O [arbutin]
increase in luminance versus control [1]: 1.8 points of L*

S=C(Nc1ccccc1)Nc1nccs1 [PTU, 1-phenyl-3-(2-thiazolyl)-2-thiourea]
adherent cells (viability) ([2]; PTU 5 μM): 95%
adherent cells (viability) ([2]; PTU 10 μM): 95%
cytotoxicity on melanocytes from African individuals ([2]; PTU 50 μM, most of the cells detach): cytotoxic
IC50 ([3]; Homo sapiens, Melanocyte, cultures of melanocytes of phototype VI (African), read-out: IC50, concentration for 50% inhibition of melanogenesis compared with the control): 50 to 100 µM
amount of pigment in the melanocytes (luminance L*) ([3]; PTU 10 μM, effect reversible when treatment is stopped, FIG. 1): decreases the amount of pigment in the melanocytes
amount of pigment excreted by the melanocytes into the medium ([3]; after PTU treatment): reduced
multiplication of melanocytes ([4]; PTU 5 μM instead of 10 μM, treated from the first passage): results of the same order of magnitude
factor of stimulation of multiplication at passage 8 [4, 7]: 5
factor of stimulation of multiplication at passage 9 [4, 7]: 15
multiplication factor of treated cells at passage 8 [4, 8]: 5
multiplication factor of treated cells at passage 9 [4, 8]: 15
percentage viability during multiplication ([4]; PTU 10 μM, non-treated control 80%): 95%
viable melanocytes after freezing, thawing and re-culturing [5]: 80%
DOPA assay (tyrosinase DOPA-oxidase activity) of treated melanocytes [6]: reactive
integration of treated melanocytes into the reconstructed epidermis [6]: integrate into the reconstructed epidermis
